Data reported in patent publication US20180193294A1, “Dehydroabietic acid (DHAA) derivatives for use as ion channel openers” (priority 2015, published 2018).
Where two headings read alike, the source gives them in different places.

Legend:
3R Shaker K channel = 3R Shaker K channel (Drosophila melanogaster, UniProt P08510, A359R/M356R); assay: physchem; assay type: cell-based; conditions: for compound-induced G(V) shift (mean±SEM) / G(V) shift: pH 7.4, Xenopus oocytes; for G(V) shift: Table 1; for Effects on K channel Mean ± SEM: Table 2, K channel expressed in Xenopus oocytes; for relative current amplitude: representative traces at voltage giving 10% of maximum conductance in control; for pKa: Drosophila melanogaster, from pH dependence of G(V) shift; for maximum shift: dose dependence fit
Chain of 3R Shaker K channel (P08510 whole entry M356R/A359R): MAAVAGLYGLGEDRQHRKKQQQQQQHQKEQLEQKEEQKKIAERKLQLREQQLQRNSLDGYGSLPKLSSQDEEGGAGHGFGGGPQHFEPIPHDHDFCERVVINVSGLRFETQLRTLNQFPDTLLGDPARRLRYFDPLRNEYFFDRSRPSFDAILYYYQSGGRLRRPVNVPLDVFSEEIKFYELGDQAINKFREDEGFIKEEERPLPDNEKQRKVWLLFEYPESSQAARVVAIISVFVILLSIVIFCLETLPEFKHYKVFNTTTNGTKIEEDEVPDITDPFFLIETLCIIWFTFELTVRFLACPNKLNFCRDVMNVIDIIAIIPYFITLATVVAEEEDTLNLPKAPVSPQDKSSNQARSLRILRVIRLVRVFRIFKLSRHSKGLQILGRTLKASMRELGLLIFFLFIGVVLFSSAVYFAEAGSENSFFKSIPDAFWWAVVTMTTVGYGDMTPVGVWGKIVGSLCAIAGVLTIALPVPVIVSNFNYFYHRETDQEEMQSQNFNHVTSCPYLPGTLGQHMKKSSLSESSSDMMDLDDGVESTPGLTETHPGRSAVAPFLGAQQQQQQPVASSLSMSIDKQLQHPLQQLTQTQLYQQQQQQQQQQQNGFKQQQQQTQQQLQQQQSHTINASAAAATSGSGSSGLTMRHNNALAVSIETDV
In short: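 Two-electrode voltage clamp at 20-23° C. in oocytes (also CHO-K1 stable line, manual patch clamp) expressing Shaker H4 lacking N-type inactivation; 1K extracellular solution, pH 7.4, holding −80 mV, 100-ms 5-mV steps up to +70 mV. Compound-induced G(V) shift taken at 10% of control Gmax (oocytes) or as V1/2 difference (CHO-K1).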

HL-1 cells = assay: Membrane potential and firing of spontaneously beating HL-1 cells, whole-cell current clamp; assay type: cell-based; conditions: 10 uM
Procedure: All conventional chemicals were purchased from Sigma-Aldrich (Stockholm, Sweden). The DHAA derivatives were diluted in ethanol in a 100 mM stock solution. The stock solutions were stored at −20 t for further use.
The cell culture was done according to a previous study (Claycomb et al., Proceedings of the National Academy of Sciences of the United States of America 1998; 95:2979-2984). In brief, cells were grown on gelating fibronectin coated T75 flasks. They were maintained in Claycomb Medium which was supplemented with 10% fetal bovine serum, 2 mM L-glutamine, 0.1 mM noradrenaline, and 100 U/ml, 100 μg/ml penicillin-streptomycin. Enzymatic dissociation with 0.05% trypsin-EDTA was done after full confluence. Isolated cells were plated on fibronectin-gelatin coated plastic coverslips and used for recording.
Whole-cell current-clamp recordings were done on confluent cells at 35±1° C., using an Axopatch 200B amplifier (Molecular Devices, Sunnyvale, Calif.). Patch pipettes were fabricated from borosilicate capillary glass on a vertical pipette puller and had resistances of 3-5 MO. Data were stored on a computer through Digidata 1440A interface (Molecular Devices), and was analyzed with pCLAMP software (version 10.1, Molecular Devices). The bath solution contained the following (in mM): 140 NaCl, 5.4 KCl, 1 MgCl2, 1.8 CaCl2, 10 HEPES, and 10 glucose (pH adjusted to 7.4 with NaOH). The micropipettes were filled with a solution containing (in mM): 130 K-gluconate, 9 KCl, 8 NaCl, 1 MgCl2, 10 EGTA, 10 HEPES, and 3 Na2ATP (pH adjusted to 7.3 with KOH).

## CC(C)c1ccc2c(c1)C(C(=O)O)CC1[C@](C)(C(=O)O)CCC[C@]21C (stereo partly drawn) [Wu35]
3R Shaker K channel; 100 μM
  compound-induced G(V) shift (mean±SEM): no effect on the K channel
  G(V) shift: −1.3 mV
3R Shaker K channel; C7-modified DHAA, 100 μM, pH 7.4
  effect on G(V) shift / current compared with DHAA: clearly reduced the current increase
3R Shaker K channel
  Effects on K channel Mean ± SEM: −1.2 ± 0.6 mV
3R Shaker K channel; 100 μM, pH 7.4
  relative current amplitude: 1.3 times
HL-1 cells
  Effects on HL-1 cells Mean (membrane potential): 1.5 mV
  effect on membrane potential of HL-1 cells: no effect on the HL-1 cells

## C[C@@]1(C(=O)O)CCC[C@]2(C)c3cc(Cl)c(Cl)c(Cl)c3CCC12 (stereo partly drawn) [Wu50, (1R,4aS)-6,7,8-trichloro-1,4a-dimethyl-1,2,3,4,4a,9,10,10a-octahydrophenanthrene-1-carboxylic acid]
3R Shaker K channel
  Kd: 37 µM
  Effects on K channel Mean ± SEM: −31.6 ± 2.1 mV
3R Shaker K channel; 1 μM, pH 7.4
  ΔG(V) at 1 μM: −1.3±0.3 mV
3R Shaker K channel; 100 μM
  compound-induced G(V) shift (mean±SEM): −31.6±2.1 mV
  pKa: 6.5
  G(V) shift: −31.6 mV
3R Shaker K channel; 100 μM, pH 7.4, same cells as representative traces
  ΔG(V) of representative G(V) curves (single examples): −32.6 mV
3R Shaker K channel; pH 7.4
  maximum shift: −46 mV
HL-1 cells
  Effects on HL-1 cells Mean (membrane potential): −5.5 mV

## CO/N=C1\CC2[C@](C)(C(=O)O)CCC[C@]2(C)c2cc(Br)c(C(C)C)cc21 (stereo partly drawn) [Wu32, (1R,4aS,E)-6-bromo-7-isopropyl-9-(methoxyimino)-1,4a-dimethyl-1,2,3,4,4a,9,10,10a-octahydrophenanthrene-1-carboxylic acid]
3R Shaker K channel; 100 μM, pH 7.4
  increase in G(V) shift relative to DHAA (ΔVc7, ΔVhalo, ΔVtot): −18.5 mV
  relative current amplitude: 10.8 times
3R Shaker K channel; 100 μM
  pKa: 5.8
  G(V) shift: −30.0 mV
3R Shaker K channel
  Effects on K channel Mean ± SEM: −30.0 ± 1.8 mV
3R Shaker K channel; Wu32 versus Wu36, 100 μM, pH 7.4
  factor of increase of the G(V) shift by bromination of C12 with methyloxime at C7: 2.5
3R Shaker K channel; c1/2 of dose dependence of G(V) shift (Eq. 3), pH 7.4, read-out: Kd-value
  Kd: 37 µM
3R Shaker K channel; pH 7.4
  maximum shift: −41 mV
3R Shaker K channel; methyloxime at C7 plus Br-12, 100 μM, pH 7.4
  shift more than expected from simple addition: −15.5 mV
HL-1 cells
  Effects on HL-1 cells Mean (membrane potential): −3.6 mV
  effect on membrane potential of HL-1 cells: intermediate effect on the HL-1 cells
